From PMC9685055, “Biological activity of new bioactive steroids deriving from biotransformation of cortisone” (Microbial Cell Factories, 2022)

Experiments:
[1] = tested on: Salmonella typhimurium TA100; assay: Ames test (plate incorporation), strain TA100; assay type: cell-based
Method: Mutagenicity assay was performed following the plate incorporation method with the histidine-requiring Salmonella typhimurium mutant TA98 and TA100 strains. All strains (100 µl per plate of fresh overnight cultures) were checked with and without the addition of 0.5 mL of a 5% S9 exogenous metabolic activator (S9 mix). The lyophilized post-mitochondrial supernatant S9 mix (Aroclor 1254-induced, Sprague–Dawley male rat liver in 0.154 M KCl solution, Molecular Toxicology, Inc., Boone, NC, USA), commonly used for the activation of pro-mutagens to mutagenic metabolites, was stored at− 80 °C before use. The concentration tested for all the samples were 1, 5, 10, 50, 100 µL/plate of a stock solution 100 mg/mL.
A fully-grown culture of the appropriate tester strain (0.1 mL) was added to 2 mL Molten Top Agar (0.6% agar, 0.6% NaCl, 0.5 mM L-histidine/biotin solution) at 46 °C, together with 0.1 mL of each sample solution at different concentrations, and 0.5 mL S9 mix for assays with metabolic activation or 0.5 mL of phosphate buffer pH 7.4 to test without metabolic activation. The ingredients were thoroughly mixed and poured onto minimal glucose agar plates (1.5% agar in 2% Vogel–Bonner medium E with 5% glucose solution).
DMSO was used as a negative control (100 µl/plate). Positive controls were prepared as follows: 2-aminoanthracene (2 µg/plate) and 2-nitrofluorene (2 µg/plate) for TA98 with and without metabolic activator (S9 mix) respectively; 2-aminoanthracene (2 µg/plate) and sodium azide (2 µg/plate) for TA100, with and without metabolic activator (S9 mix) respectively. The plates were incubated at 37 °C for 72 h and then the his^+ revertants were checked and counted using a Colony Counter 560 Suntex (Antibioticos, Italy). A sample was considered mutagenic when the observed number of colonies was at least twofold over the spontaneous level of revertants. All determinations were made in triplicate. Relative standard deviations were computed using the statistical software […] 6.0 (StatSoft Italia srl).

cyclooxygenase (COX) = molecular target: T1, cyclooxygenase (COX) (Ovis aries, UniProt P05979); assay: Cyclooxygenase inhibitory assay (fluorescence COX activity kit); assay type: biochemical; details: purified COX preparation, 0.1, 1, 10 and 100 µM, 5 min at 25 °C
T1 construct: purchased Cayman 700200
T1 sequence (P05979 25-600): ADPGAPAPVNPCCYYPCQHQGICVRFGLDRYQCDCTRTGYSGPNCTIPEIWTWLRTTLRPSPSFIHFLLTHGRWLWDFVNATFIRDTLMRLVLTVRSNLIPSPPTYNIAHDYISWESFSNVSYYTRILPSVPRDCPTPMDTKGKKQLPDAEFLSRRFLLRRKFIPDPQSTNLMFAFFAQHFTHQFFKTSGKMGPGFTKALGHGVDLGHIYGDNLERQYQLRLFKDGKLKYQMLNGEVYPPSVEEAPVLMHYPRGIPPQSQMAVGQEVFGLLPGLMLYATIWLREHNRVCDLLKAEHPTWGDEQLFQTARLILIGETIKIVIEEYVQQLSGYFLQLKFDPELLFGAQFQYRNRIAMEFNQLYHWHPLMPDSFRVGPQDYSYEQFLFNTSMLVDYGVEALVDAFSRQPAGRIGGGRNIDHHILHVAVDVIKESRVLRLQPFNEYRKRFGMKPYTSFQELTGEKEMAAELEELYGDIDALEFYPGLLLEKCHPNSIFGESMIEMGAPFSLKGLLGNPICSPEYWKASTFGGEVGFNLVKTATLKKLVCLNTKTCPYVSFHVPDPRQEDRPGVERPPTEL
Method: Cyclooxygenase (COX) activity assay was determined by using a fluorescence COX activity assay kit (Cayman, No. 700200) for detecting COX-1 and COX-2 activity in purified enzyme and tissue homogenate preparations. The assay was conducted by monitoring the appearance of fluorescent compound resofurin in accordance to the supplier recommendation. Aspirin (acetylsalicylic acid; 50 µM) served as positive control. The test compounds were dissolved in 1–2% DMSO (v/v) at 4 different concentrations (0.1, 1, 10 and 100 µM) and added to a purified COX preparation. A 1–2% DMSO solution was added to control plates. The plates were shaken for a few seconds and incubated for 5 min at 25 °C. The fluorescence was measured by using an excitation wavelength of 540 nm and an emission wavelength of 590 nm. Average fluorescent values were calculated for all the samples (n = 3/group) in order to determine the percentage of inhibition in respect to control (i.e. untreated) plates.

[2] = TA100, + S9, 1 µL/plate of a stock solution 100 mg/mL
[3] = TA100, + S9, 5 µL/plate of a stock solution 100 mg/mL
[4] = TA100, + S9, 10 µL/plate of a stock solution 100 mg/mL
[5] = TA100, + S9, 50 µL/plate of a stock solution 100 mg/mL
[6] = TA100, + S9, 100 µL/plate of a stock solution 100 mg/mL
[7] = TA100, − S9, 1 µL/plate of a stock solution 100 mg/mL
[8] = TA100, − S9, 5 µL/plate of a stock solution 100 mg/mL
[9] = TA100, − S9, 10 µL/plate of a stock solution 100 mg/mL
[10] = TA100, − S9, 50 µL/plate of a stock solution 100 mg/mL
[11] = TA100, − S9, 100 µL/plate of a stock solution 100 mg/mL

| SMILES | genotoxic activity (Ames test) [1] | average number of revertant colonies [1, 2] | t/c (revertant colonies in treated plates/untreated plates) [1, 2] | average number of revertant colonies [1, 3] | t/c (revertant colonies in treated plates/untreated plates) [1, 3] | average number of revertant colonies [1, 4] | t/c (revertant colonies in treated plates/untreated plates) [1, 4] | average number of revertant colonies [1, 5] | t/c (revertant colonies in treated plates/untreated plates) [1, 5] | average number of revertant colonies [1, 6] | t/c (revertant colonies in treated plates/untreated plates) [1, 6] | average number of revertant colonies [1, 7] | t/c (revertant colonies in treated plates/untreated plates) [1, 7] | average number of revertant colonies [1, 8] | t/c (revertant colonies in treated plates/untreated plates) [1, 8] | average number of revertant colonies [1, 9] | t/c (revertant colonies in treated plates/untreated plates) [1, 9] | average number of revertant colonies [1, 10] | t/c (revertant colonies in treated plates/untreated plates) [1, 10] | average number of revertant colonies [1, 11] | further results |
| --- | --- | --- | --- | --- | --- | --- | --- | --- | --- | --- | --- | --- | --- | --- | --- | --- | --- | --- | --- | --- | --- |
| Cc1ccc(O)c2c1CCC1C3CC[C@](O)(C(=O)CO)[C@@]3(C)CC(=O)[C@@]21O (stereo partly drawn) [SCA, 1,9β,17,21‐tetrahydoxy‐4‐methyl‐19‐nor‐9β‐pregna‐1,3,5(10)‐trien‐11,20‐dione] | For none of the samples genotoxic activity emerged | 179.3 | 1.0 | 181.7 | 1.0 | 185.3 | 1.0 | 205.7 | 1.1 | 194.3 | 1.1 | 163.0 | 1.0 | 164.3 | 1.0 | 158.0 | 1.0 | 157.0 | 0.9 | 166.7 | t/c (revertant colonies in treated plates/untreated plates) [1, 11]: 1.0; effect on COX activity (cyclooxygenase (COX)): barely affected COX activity only at the lower concentration tested (0.1 µM) |
| Cc1ccc(O)c2c1CCC1C3CC[C@](O)([C@H](O)CO)[C@@]3(C)CC(=O)[C@@]21O (stereo partly drawn) [SCB, 1,9β,17,20β,21‐ pentahydoxy‐4‐methyl‐19‐nor‐9β‐pregna‐1,3,5(10)‐trien‐11‐one] | For none of the samples genotoxic activity emerged | 190 | 1.0 | 194 | 1.0 | 193 | 1.0 | 189 | 1.0 | 195 | 1.0 | 157 | 0.9 | 169 | 1.0 | 164 | 1.0 | 169 | 1.0 | 180 | t/c (revertant colonies in treated plates/untreated plates) [1, 11]: 1.1; effect on COX activity (cyclooxygenase (COX)): inhibited COX activity at all concentrations tested in a dose-dependent trend |
